Tests used:
[1] = tested on: ISC-enriched organoids; experiment: Primary screen, 384-well 2.5-D organoid differentiation (ENR+CD, 6 days): basal lysozyme secretion (LYZ.NS); assay type: cell-based, murine; settings: primary screen; for Dose.FC.LYZ.NS: FC vs plate median; for Z.LYZ.NS: standard z score; for SSMD.LYZ.NS: strictly standardized mean difference
Source text: (§1) High-throughput screening.

[2] = tested on: ISC-enriched organoids; experiment: Primary screen, 384-well 2.5-D organoid differentiation (ENR+CD, 6 days): carbachol-induced lysozyme secretion (LYZ.S); assay type: cell-based, murine; settings: primary screen; for Dose.FC.LYZ.S: FC vs plate median; for Z.LYZ.S: standard z score; for SSMD.LYZ.S: strictly standardized mean difference
Source text: as §1

[3] = tested on: ISC-enriched organoids; experiment: Primary screen, 384-well 2.5-D organoid differentiation (ENR+CD, 6 days, Target Selective Inhibitor Library, vs whole-plate median): ATP (CellTiter-Glo 3D, CTG); settings: primary screen; for Dose.FC.CTG: FC vs plate median; for Z.CTG: standard z score; for SSMD.CTG: strictly standardized mean difference
[4] = 1st of the 4 dose lines of the treatment (dose not given)
[5] = 2nd of the 4 dose lines of the treatment (dose not given)
[6] = 3rd of the 4 dose lines of the treatment (dose not given)
[7] = 4th of the 4 dose lines of the treatment (dose not given)

## COc1cc(-c2ncn(/C=C\C(=O)OC(C)C)n2)cc(C(F)(F)F)c1 [KPT-185]
[1]; Dose 0.08 uM
  Dose.FC.LYZ.NS: −0.006 log 2 fold change
  Z.LYZ.NS: −0.049
[1]; Dose 0.40 uM
  Dose.FC.LYZ.NS: 0.097 log 2 fold change
  Z.LYZ.NS: 0.846
[1]; Dose 2.00 uM
  Dose.FC.LYZ.NS: −0.209 log 2 fold change
  Z.LYZ.NS: −1.820
[1]; Dose 10.00 uM
  Dose.FC.LYZ.NS: −0.085 log 2 fold change
  Z.LYZ.NS: −0.744
[1]; [4]
  SSMD.LYZ.NS: −0.049
[1]; [5]
  SSMD.LYZ.NS: 0.872
[1]; [6]
  SSMD.LYZ.NS: −1.718
[1]; [7]
  SSMD.LYZ.NS: −0.298
[2]; Dose 0.08 uM
  Dose.FC.LYZ.S: −0.015 log 2 fold change
[2]; Dose 0.40 uM
  Dose.FC.LYZ.S: 0.220 log 2 fold change
[2]; Dose 2.00 uM
  Dose.FC.LYZ.S: −0.322 log 2 fold change
[2]; Dose 10.00 uM
  Dose.FC.LYZ.S: −0.153 log 2 fold change
[2]; [4]
  Z.LYZ.S: −0.096
  SSMD.LYZ.S: −0.092
[2]; [5]
  Z.LYZ.S: 1.420
  SSMD.LYZ.S: 0.978
[2]; [6]
  Z.LYZ.S: −2.085
  SSMD.LYZ.S: −1.455
[2]; [7]
  Z.LYZ.S: −0.989
  SSMD.LYZ.S: −0.431
[3]; Dose 0.08 uM
  Dose.FC.CTG: 0.116 log 2 fold change
  Z.CTG: 0.277
[3]; Dose 0.40 uM
  Dose.FC.CTG: 0.104 log 2 fold change
  Z.CTG: 0.248
[3]; Dose 2.00 uM
  Dose.FC.CTG: −0.995 log 2 fold change
  Z.CTG: −2.377
[3]; Dose 10.00 uM
  Dose.FC.CTG: −0.855 log 2 fold change
  Z.CTG: −2.041
[3]; [4]
  SSMD.CTG: 0.296
[3]; [5]
  SSMD.CTG: 0.270
[3]; [6]
  SSMD.CTG: −1.033
[3]; [7]
  SSMD.CTG: −0.723

## O=C(/C=C\n1cnc(-c2cc(C(F)(F)F)cc(C(F)(F)F)c2)n1)N1CC(F)(F)C1 [KPT-276]
[1]; Dose 0.08 uM
  Dose.FC.LYZ.NS: 0.056 log 2 fold change
  Z.LYZ.NS: 0.492
[1]; Dose 0.40 uM
  Dose.FC.LYZ.NS: 0.086 log 2 fold change
  Z.LYZ.NS: 0.746
[1]; Dose 2.00 uM
  Dose.FC.LYZ.NS: −0.224 log 2 fold change
  Z.LYZ.NS: −1.947
[1]; Dose 10.00 uM
  Dose.FC.LYZ.NS: −0.256 log 2 fold change
  Z.LYZ.NS: −2.230
[1]; [4]
  SSMD.LYZ.NS: 0.486
[1]; [5]
  SSMD.LYZ.NS: 0.742
[1]; [6]
  SSMD.LYZ.NS: −1.426
[1]; [7]
  SSMD.LYZ.NS: −1.384
[2]; Dose 0.08 uM
  Dose.FC.LYZ.S: 0.133 log 2 fold change
[2]; Dose 0.40 uM
  Dose.FC.LYZ.S: 0.148 log 2 fold change
[2]; Dose 2.00 uM
  Dose.FC.LYZ.S: −0.327 log 2 fold change
[2]; Dose 10.00 uM
  Dose.FC.LYZ.S: −0.361 log 2 fold change
[2]; [4]
  Z.LYZ.S: 0.860
  SSMD.LYZ.S: 0.806
[2]; [5]
  Z.LYZ.S: 0.958
  SSMD.LYZ.S: 0.771
[2]; [6]
  Z.LYZ.S: −2.111
  SSMD.LYZ.S: −1.399
[2]; [7]
  Z.LYZ.S: −2.335
  SSMD.LYZ.S: −1.417
[3]; Dose 0.08 uM
  Dose.FC.CTG: 0.167 log 2 fold change
  Z.CTG: 0.399
[3]; Dose 0.40 uM
  Dose.FC.CTG: −0.044 log 2 fold change
  Z.CTG: −0.104
[3]; Dose 2.00 uM
  Dose.FC.CTG: −0.413 log 2 fold change
  Z.CTG: −0.986
[3]; Dose 10.00 uM
  Dose.FC.CTG: −0.703 log 2 fold change
  Z.CTG: −1.680
[3]; [4]
  SSMD.CTG: 0.494
[3]; [5]
  SSMD.CTG: −0.146
[3]; [6]
  SSMD.CTG: −0.772
[3]; [7]
  SSMD.CTG: −2.520

## C[C@@H]1CN(CC(=O)Nc2ccc3c(c2)Cc2cccc(-c4cc(=O)cc(N5CCOCC5)o4)c2S3)C[C@H](C)O1 [KU-60019]
[1]; [4]
  SSMD.LYZ.NS: 0.305
[1]; [5]
  SSMD.LYZ.NS: −0.014
[1]; [6]
  SSMD.LYZ.NS: −0.103
[1]; [7]
  SSMD.LYZ.NS: −0.570
[2]; [4]
  Z.LYZ.S: 1.490
  SSMD.LYZ.S: 0.938
[2]; [5]
  Z.LYZ.S: 0.474
  SSMD.LYZ.S: 0.312
[2]; [6]
  Z.LYZ.S: −0.317
  SSMD.LYZ.S: −0.261
[2]; [7]
  Z.LYZ.S: −1.436
  SSMD.LYZ.S: −0.923
[3]; Dose 0.08 uM
  Z.CTG: 0.273
[3]; Dose 0.40 uM
  Z.CTG: 0.094
[3]; Dose 2.00 uM
  Z.CTG: 0.290
[3]; Dose 10.00 uM
  Z.CTG: −1.246
[3]; [4]
  SSMD.CTG: 0.371
[3]; [5]
  SSMD.CTG: 0.118
[3]; [6]
  SSMD.CTG: 0.175
[3]; [7]
  SSMD.CTG: −0.916

## COC(=O)CCSCc1ccc(-c2onc(C)c2NC(=O)OC(C)c2ccccc2Cl)cc1 (centres unmarked) [Ki16198]
[1]; Dose 0.08 uM
  Dose.FC.LYZ.NS: 0.005 log 2 fold change
  Z.LYZ.NS: 0.044
[1]; Dose 0.40 uM
  Dose.FC.LYZ.NS: −0.009 log 2 fold change
  Z.LYZ.NS: −0.076
[1]; Dose 2.00 uM
  Dose.FC.LYZ.NS: 0.060 log 2 fold change
  Z.LYZ.NS: 0.519
[1]; Dose 10.00 uM
  Dose.FC.LYZ.NS: −0.103 log 2 fold change
  Z.LYZ.NS: −0.899
[1]; [4]
  SSMD.LYZ.NS: 0.052
[1]; [5]
  SSMD.LYZ.NS: −0.083
[1]; [6]
  SSMD.LYZ.NS: 0.211
[1]; [7]
  SSMD.LYZ.NS: −0.914
[2]; Dose 0.08 uM
  Dose.FC.LYZ.S: 0.027 log 2 fold change
[2]; Dose 0.40 uM
  Dose.FC.LYZ.S: 0.031 log 2 fold change
[2]; Dose 2.00 uM
  Dose.FC.LYZ.S: −0.015 log 2 fold change
[2]; Dose 10.00 uM
  Dose.FC.LYZ.S: −0.037 log 2 fold change
[2]; [4]
  Z.LYZ.S: 0.176
  SSMD.LYZ.S: 0.136
[2]; [5]
  Z.LYZ.S: 0.204
  SSMD.LYZ.S: 0.231
[2]; [6]
  Z.LYZ.S: −0.095
  SSMD.LYZ.S: −0.105
[2]; [7]
  Z.LYZ.S: −0.239
  SSMD.LYZ.S: −0.262
[3]; Dose 0.08 uM
  Dose.FC.CTG: −0.011 log 2 fold change
  Z.CTG: −0.026
[3]; Dose 0.40 uM
  Dose.FC.CTG: −0.108 log 2 fold change
  Z.CTG: −0.258
[3]; Dose 2.00 uM
  Dose.FC.CTG: −0.033 log 2 fold change
  Z.CTG: −0.078
[3]; Dose 10.00 uM
  Dose.FC.CTG: 0.022 log 2 fold change
  Z.CTG: 0.052
[3]; [4]
  SSMD.CTG: −0.028
[3]; [5]
  SSMD.CTG: −0.359
[3]; [6]
  SSMD.CTG: −0.118
[3]; [7]
  SSMD.CTG: 0.073

## Cc1noc(-c2ccc(CSCCC(=O)O)cc2)c1NC(=O)OC(C)c1ccccc1Cl (centres unmarked) [Ki16425]
[1]; Dose 0.08 uM
  Dose.FC.LYZ.NS: 0.001 log 2 fold change
  Z.LYZ.NS: 0.005
[1]; Dose 0.40 uM
  Dose.FC.LYZ.NS: 0.117 log 2 fold change
  Z.LYZ.NS: 1.017
[1]; Dose 2.00 uM
  Dose.FC.LYZ.NS: −0.008 log 2 fold change
  Z.LYZ.NS: −0.069
[1]; Dose 10.00 uM
  Dose.FC.LYZ.NS: −0.038 log 2 fold change
  Z.LYZ.NS: −0.327
[1]; [4]
  SSMD.LYZ.NS: 0.006
[1]; [5]
  SSMD.LYZ.NS: 0.483
[1]; [6]
  SSMD.LYZ.NS: −0.072
[1]; [7]
  SSMD.LYZ.NS: −0.246
[2]; Dose 0.08 uM
  Dose.FC.LYZ.S: 0.022 log 2 fold change
[2]; Dose 0.40 uM
  Dose.FC.LYZ.S: 0.114 log 2 fold change
[2]; Dose 2.00 uM
  Dose.FC.LYZ.S: −0.021 log 2 fold change
[2]; Dose 10.00 uM
  Dose.FC.LYZ.S: −0.071 log 2 fold change
[2]; [4]
  Z.LYZ.S: 0.142
  SSMD.LYZ.S: 0.130
[2]; [5]
  Z.LYZ.S: 0.739
  SSMD.LYZ.S: 0.421
[2]; [6]
  Z.LYZ.S: −0.135
  SSMD.LYZ.S: −0.133
[2]; [7]
  Z.LYZ.S: −0.459
  SSMD.LYZ.S: −0.394
[3]; Dose 0.08 uM
  Dose.FC.CTG: −0.051 log 2 fold change
  Z.CTG: −0.121
[3]; Dose 0.40 uM
  Dose.FC.CTG: −0.002 log 2 fold change
  Z.CTG: −0.005
[3]; Dose 2.00 uM
  Dose.FC.CTG: −0.078 log 2 fold change
  Z.CTG: −0.185
[3]; Dose 10.00 uM
  Dose.FC.CTG: −0.165 log 2 fold change
  Z.CTG: −0.394
[3]; [4]
  SSMD.CTG: −0.145
[3]; [5]
  SSMD.CTG: −0.008
[3]; [6]
  SSMD.CTG: −0.226
[3]; [7]
  SSMD.CTG: −0.527
